Reference: patent publication US6037333A, “Microbe-inhibiting compositions” (Trustees of Tufts College, priority 1998, dated 2000)
Entries after “also recorded” stand apart in the source; their conditions may differ.

Legend:
Acanthamoeba [1] = test: Acanthamoeba-induced cytopathic effect (CPE) assay, immortalized corneal epithelial cultures; assay type: cell-based; settings: for Inhibition of amoeba-induced CPE: no concentration stated
Procedure: Corneal epithelial cells with extended life span were also produced.
(§1) To characterize the role of carbohydrate-mediated host-parasite interactions in the Acanthamoeba-induced cytotoxicity of host cells, in vitro cytopathic assays were performed using both primary and immortalized cultures of corneal epithelium as host cells. Immortalized cells were assayed as confluent cultures in 24-well plates, and primary cells were assayed as confluent cells in 35-mm dishes or 6-well plates.
(§2) The plates were incubated at 37° C. in a CO2 incubator and periodically examined under a phase-contrast microscope for the presence of cell-free plaques in the monolayer for up to 28-30 hours. Control wells contained host cells without the parasites. At the end of the incubation period, the cultures were stained with Giemsa (Diff-Quik, Dade Diagnostic Inc., Aguada, PR). Approximate cell density in each well was estimated by scanning the stained plates in a calibrated, computer-assisted Bio-Image Scanner (Millipore, Ann Arbor, Mich.). Cytopathic effect (CPE) was expressed as percentage of the optical density by the following formula: [formula]
The CPE assays were performed in the SFB media containing one or more saccharides to be tested.
After staining with Giemsa, percent cell loss in each well was calculated based on the optical density in each well.

Acanthamoeba [2] = test: Acanthamoeba-induced CPE assay, primary cultures of corneal epithelium; assay type: cell-based; settings: primary cultures as target cells
Procedure: In vitro cytopathic assays were performed using cell cultures of corneal epithelium as target cells. Primary cell cultures of rabbit corneal epithelium were prepared according to published protocols (M. M. Jumblatt, Invest. Opthalmol. Visual Sci. 24:1139-43, 1983) using rabbit eyes from Pel-Freez Biologicals (N. Panjwani et al., Invest. Opthalmol. Visual Sci. 31:689-695, 1990) (Rogers, AK). Generally, seventy-five eyes were processed at a time. Primary cultures have limited life span and can only be passaged 2 to 3 times without significant alteration in cell morphology.
as §1
as §2, with “The parasites (>95% trophozoites) were rinsed three times in a serum-free Eagle's minimum essential medium supplemented with 0.4% bovine serum albumin (SFB) and aliquots of the parasite suspension (0.2×10^5 to 1×10^6 parasites/ml SFB medium, 300 μl/well for 24-well plates and 500 μl/well for 6-well plates or 35-mm dishes) were added to wells of confluent epithelial cultures which had been rinsed and preincubated in SFB medium for 2 hours. The” for “The”
Primary cultures were less susceptible to amoeba-induced CPE, requiring 1×10^6 parasites/ml to completely destroy the monolayer within 24 hours. This parasite concentration was five times higher than that required to produce the same effect when immortalized cultures were used as target host cells.

Acanthamoeba [3] = test: 51Cr release assay of amoeba-induced cytolysis of corneal epithelium; assay type: cell-based
Procedure: Chromium release experiments were performed to confirm the absence or occurrence of cytolysis. Visually, cell plaques or bare spots in a culture can indicate either cell loss by cytolysis, or separation of the cell from the culture surface, wherein detached cells, although initially viable, subsequently die. Cell lysis was quantified by measuring ^51 Cr release from prelabeled cells. After incubating confluent monolayer cultures of corneal epithelium in 24-well plates in cell culture medium containing Na^51 CrO4 (460 mCi/mg, 12 μCi/ml) for 18-20 hours, the cells were thoroughly rinsed and incubated with Acanthamoeba (1×10^6 parasites/ml SFB media). The four groups were (i) Acanthamoeba in media alone, (ii) Acanthamoeba in media containing α-Man, (iii) Acanthamoeba in media containing GlcNAc, and (iv) Acanthamoeba condition media. When approximately 50-70% cell loss occurred based on phase contrast microscopy, aliquots of cell-free conditioned medium from each well were analyzed. Supernatants from the four wells in each group were pooled before analysis. Percent specific release was calculated using E/T×100, where E is CPM released in test well minus CPM released in control (parasite-free) well and T is the total CPM (CPM cells+CPM supernatant in control wells). "CPM cells" was determined by incubating control wells with 0.5% Triton X-100. Conditioned media from each well was also analyzed for lactate dehydrogenase (LDH) release using an LDH assay kit (Sigma).

proteinases P2 and P3 = test: Zymography of media conditioned by amoebae with primary corneal epithelium, with or without α-Man; assay type: cell-based, Acanthamoeba; settings: amoebae with host cells, adhesion blocked by saccharide
Procedure: To characterize the mechanism by which the mannose-mediated host-parasite interactions influence the amoeba-induced cytolysis and/or cytopathic effect, conditioned media obtained by incubating amoebae with primary cultures of corneal epithelium in the presence and absence of α-Man for 6 to 8 hours were analyzed by zymography. Media conditioned by only Acanthamoeba or only epithelial cells were also analyzed. Zymography was performed using separating gels containing 10% acrylamide and 2 mg/ml gelatin, essentially as described by D. E. Kleiner et al. (Anal Biochem. 218:325-329, 1994). Samples were diluted in the electrophoresis sample buffer (U. K. Laemmli, Nature 227:680-685, 1970) without mercaptoethanol and were applied to the gels. After electrophoresis, proteinases separated on the gels were renatured by incubating the gels in 2.5% Triton X-100 in 50 mM Tris-HCl, pH 7.5 to remove SDS. After incubating the gels for 18 hours in a developing buffer (50 mM Tris-HCl, pH 7.5 containing 10 mM CaCl2), the gels were stained with Coomassie brilliant blue. Areas of digestion were visualized as non-staining regions. In some experiments, samples were pre-treated with phenylmethylsulfonyl fluoride (PMSF, 1 mM), an inhibitor of […] for one hour prior to electrophoresis, or 1,10-phenanthroline (1 mM), an inhibitor of metalloproteinases, was added to the developing buffer.

SMILES: CO[C@H]1O[C@H](CO)[C@@H](O)[C@H](O)[C@@H]1O [Methyl-α-D-mannopyranoside]
- inhibition at 310 µM (Acanthamoeba [1]; Acanthamoeba, in Oryctolagus cuniculus, at 0.31 mM, read-out: Inhibition of cytopathic effect (% inhib. at indicated conc.)): 61%
- Time at which cell layer began to lift from the periphery (Acanthamoeba [1]; incubation with amoebae in presence of saccharide, without it nearly complete loss after about 20 hours): 20 to 28 h
- Inhibition of amoeba-induced CPE (Acanthamoeba [1]; listed as Methyl-α-mannopyranoside): potent inhibitors
- Inhibition of amoeba-induced CPE (Acanthamoeba [1]; listed as α-Man): nearly identical
- Amoeba-induced cytolysis of corneal epithelial cells (microscopy, words) (Acanthamoeba [1]; saccharide present in media): substantially inhibited
- Cell-free plaques in monolayer (Acanthamoeba [1]; saccharide present in media): not detected
- Inhibition of amoeba-induced CPE (Acanthamoeba [2]): inhibited CPE
- Percentage specific 51Cr release (Acanthamoeba [3]; Acanthamoeba 1×10^6 parasites/ml in media containing the saccharide, media alone about 100): ~28%
- Inhibition of amoeba-induced cytolysis (Acanthamoeba [3]; fifty millimolar, 51Cr release): more than 70%
- Expression of proteinase P2 (97 kD) (proteinases P2 and P3): robustly expressed
- Expression of proteinase P3 (80 kD) (proteinases P2 and P3; listed as α-Man): not expressed; also recorded: not detected
